Data: ChEMBL document CHEMBL1201862, “PubChem BioAssay data set” (2004)
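How tested: cells in 96-well plates exposed to compound for 48 hours at five concentrations. Abbreviation: GI50, concentration required for 50% inhibition of growth.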 Active and inactive are the calls of the source. No stated cut-off is given here; in the data, active = GI50 up to about 1.1 µM and inactive = higher.

Tests used:
Assay in all cases: NCI anticancer screen, dose series, 48 h
SNB-19 = tested on: SNB-19
HT-29 = tested on: HT-29
SK-MEL-28 = tested on: SK-MEL-28
SF-295 = tested on: SF-295
UACC-62 = tested on: UACC-62
SW-620 = tested on: SW-620
HOP-62 = tested on: HOP-62
HOP-92 = tested on: HOP-92
OVCAR-5 = tested on: OVCAR-5
SK-MEL-2 = tested on: SK-MEL-2
Malme-3M = tested on: Malme-3M
IGROV-1 = tested on: IGROV-1
OVCAR-4 = tested on: OVCAR-4
OVCAR-3 = tested on: OVCAR-3

Measured: GI50

CCN(CC)C1CC(O[C@H]2C[C@](O)(C(=O)CO)Cc3c(O)c4c(c(O)c32)C(=O)c2c(OC)cccc2C4=O)OC(C)C1O (stereo not given in full)
active: SNB-19 0.103 µM | HT-29 < 0.0252 µM | SK-MEL-28 0.0764 µM | SF-295 0.0512 µM | UACC-62 0.0431 µM | SW-620 < 0.0219 µM | HOP-62 0.0887 µM | HOP-92 0.0522 µM | OVCAR-5 0.12 µM | SK-MEL-2 0.067 µM | Malme-3M 0.0653 µM | IGROV-1 0.0859 µM | OVCAR-4 0.0546 µM | OVCAR-3 0.126 µM

CCOC(OCC)(OCC)C(Br)CC (stereo not given)
inactive: SNB-19 > 100 µM | HT-29 53.6 µM | SK-MEL-28 > 100 µM | SF-295 > 100 µM | UACC-62 > 100 µM | HOP-62 > 100 µM | HOP-92 > 100 µM | OVCAR-5 > 100 µM | SK-MEL-2 > 100 µM | Malme-3M > 100 µM | IGROV-1 > 100 µM | OVCAR-4 > 100 µM | OVCAR-3 > 100 µM

CC/C=C/c1cc2c(c3[nH]ccc13)[C@@H](C)CC2C.CC/C=C/c1cc2cc[nH]c2c2c1C(C)C[C@@H]2C.CCc1cc2c(c3[nH]ccc13)[C@@H](C)CC2C (stereo not given in full)
inactive: SNB-19 19.2 µM | HT-29 14.4 µM | SK-MEL-28 15.7 µM | SF-295 16.6 µM | SW-620 16.9 µM | HOP-62 16.3 µM | OVCAR-5 19.9 µM | SK-MEL-2 15.4 µM | Malme-3M 20.2 µM | OVCAR-4 15.4 µM

CCCNC(=O)c1cc2ccccc2cc1C(=O)OC
inactive: SNB-19 > 100 µM | HT-29 > 100 µM | SK-MEL-28 > 100 µM | SF-295 > 100 µM | UACC-62 > 100 µM | SW-620 > 100 µM | HOP-62 > 100 µM | HOP-92 59.2 µM | OVCAR-5 > 100 µM | SK-MEL-2 > 100 µM | Malme-3M > 100 µM | IGROV-1 > 100 µM | OVCAR-4 > 100 µM | OVCAR-3 > 100 µM

[O-][S+](Cc1cc2c(cc1Br)OCO2)c1ccccc1 (stereo not given)
inactive: SNB-19 > 100 µM | HT-29 34 µM | SK-MEL-28 98.2 µM | SF-295 > 100 µM | UACC-62 33.4 µM | SW-620 15.4 µM | HOP-62 > 100 µM | HOP-92 83.9 µM | OVCAR-5 > 100 µM | SK-MEL-2 > 100 µM | Malme-3M 49.1 µM | IGROV-1 39.4 µM | OVCAR-4 67.6 µM | OVCAR-3 35.3 µM

COc1cc(O)c(C(=O)C2Cc3ccccc32)c(OC)c1 (stereo not given)
inactive: SNB-19 > 100 µM | HT-29 35.3 µM | SF-295 86.1 µM | UACC-62 57.5 µM | SW-620 59.7 µM | HOP-62 > 100 µM | HOP-92 35.9 µM | OVCAR-5 35.7 µM | SK-MEL-2 34.3 µM | Malme-3M 35.8 µM | IGROV-1 > 100 µM | OVCAR-4 64.4 µM

CC1CCC2[C@@H](C)COC3O[C@]4(C)CCC1C32OO4 (stereo not given in full)
inactive: SNB-19 > 100 µM | HT-29 > 100 µM | SK-MEL-28 > 100 µM | SF-295 > 100 µM | UACC-62 > 100 µM | SW-620 > 100 µM | HOP-62 > 100 µM | HOP-92 > 100 µM | OVCAR-5 > 100 µM | SK-MEL-2 > 100 µM | Malme-3M > 100 µM | IGROV-1 > 100 µM | OVCAR-4 > 100 µM | OVCAR-3 > 100 µM

O=c1[nH]c(=O)n(C2OC(CO)C(O)C2O)cc1/N=N/NCc1ccccc1 (stereo not given)
inactive: SNB-19 > 100 µM | HT-29 > 100 µM | SK-MEL-28 > 100 µM | SF-295 > 100 µM | UACC-62 > 100 µM | SW-620 > 53.5 µM | HOP-62 > 100 µM | HOP-92 > 100 µM | OVCAR-5 > 100 µM | SK-MEL-2 > 100 µM | Malme-3M > 100 µM | IGROV-1 > 100 µM | OVCAR-4 > 100 µM | OVCAR-3 > 100 µM

Cc1nc(-c2ccccc2)cc2c1c(=O)oc1ccccc12
inactive: SNB-19 > 100 µM | HT-29 > 100 µM | SK-MEL-28 > 100 µM | SF-295 > 100 µM | UACC-62 46.8 µM | SW-620 > 100 µM | HOP-62 > 100 µM | HOP-92 > 100 µM | OVCAR-5 > 100 µM | SK-MEL-2 > 100 µM | Malme-3M > 100 µM | IGROV-1 > 100 µM | OVCAR-4 > 100 µM | OVCAR-3 > 100 µM

CCOC(=O)C(C)Sc1nnc(COc2ccccc2OC)n1-c1ccccc1 (stereo not given)
inactive: SNB-19 > 100 µM | HT-29 75.5 µM | SK-MEL-28 > 100 µM | SF-295 > 100 µM | UACC-62 > 100 µM | SW-620 19.2 µM | HOP-62 > 100 µM | HOP-92 49.1 µM | OVCAR-5 > 100 µM | SK-MEL-2 > 100 µM | Malme-3M > 100 µM | IGROV-1 > 100 µM | OVCAR-4 > 100 µM | OVCAR-3 > 100 µM

CCCCCCCC(=O)OCC1OC(n2cc(F)c(=O)[nH]c2=O)C(N)C(OC(=O)CCCCCCC)C1O (stereo not given)
inactive: SNB-19 17.5 µM | HT-29 19.3 µM | SK-MEL-28 17.3 µM | SF-295 17.5 µM | UACC-62 17.8 µM | SW-620 18.4 µM | HOP-62 18.6 µM | HOP-92 18.4 µM | SK-MEL-2 18.8 µM | Malme-3M 17.5 µM | IGROV-1 20.3 µM | OVCAR-4 15.2 µM | OVCAR-3 20.8 µM

COc1ccc2cc3n(c(=O)c2c1)CCc1c-3cc(OC)c(OC)c1OC
inactive: SNB-19 > 100 µM | HT-29 > 100 µM | SK-MEL-28 > 100 µM | SF-295 > 100 µM | UACC-62 > 100 µM | SW-620 > 100 µM | HOP-62 68.1 µM | HOP-92 > 100 µM | OVCAR-5 > 100 µM | SK-MEL-2 56 µM | Malme-3M > 100 µM | IGROV-1 > 100 µM | OVCAR-4 > 100 µM | OVCAR-3 > 100 µM

Cc1cc(NS(=O)(=O)c2ccc(NC(=O)c3cccn4c(=O)c5ccccc5nc34)cc2)no1
inactive: SNB-19 > 100 µM | HT-29 > 100 µM | SK-MEL-28 > 100 µM | SF-295 > 100 µM | UACC-62 > 100 µM | SW-620 > 100 µM | HOP-62 > 100 µM | HOP-92 > 100 µM | Malme-3M > 100 µM | IGROV-1 > 100 µM | OVCAR-4 > 100 µM | OVCAR-3 > 100 µM

CC(=O)OCc1ncccc1C(OC(C)=O)OC(C)=O
inactive: SNB-19 > 100 µM | HT-29 > 100 µM | SK-MEL-28 > 100 µM | SF-295 > 100 µM | UACC-62 > 100 µM | SW-620 > 100 µM | HOP-62 > 100 µM | HOP-92 > 100 µM | OVCAR-5 > 100 µM | SK-MEL-2 > 100 µM | Malme-3M > 100 µM | IGROV-1 > 100 µM | OVCAR-4 > 100 µM | OVCAR-3 > 100 µM

Cc1ncc(CCl)c2c1OC(C)(C)OC2
inactive: SNB-19 63.8 µM | HT-29 52.2 µM | SK-MEL-28 24 µM | SF-295 > 100 µM | UACC-62 > 100 µM | SW-620 18.7 µM | HOP-62 > 100 µM | HOP-92 32.2 µM | OVCAR-5 22.3 µM | SK-MEL-2 > 100 µM | Malme-3M 19.2 µM | IGROV-1 > 100 µM | OVCAR-4 15.1 µM | OVCAR-3 26.1 µM

COC(=O)C1=C(C)N(NC(=O)OC(C)(C)C)C(=O)C1=P(c1ccccc1)(c1ccccc1)c1ccccc1
inactive: SNB-19 > 100 µM | HT-29 > 100 µM | SF-295 67.9 µM | UACC-62 > 100 µM | SW-620 > 100 µM | HOP-62 > 100 µM | HOP-92 > 100 µM | OVCAR-5 > 100 µM | SK-MEL-2 17.2 µM | Malme-3M > 100 µM | IGROV-1 > 100 µM | OVCAR-4 > 100 µM | OVCAR-3 66.8 µM

CCN(CC)CCOC(c1ccccc1)c1ccccc1.CCOC(=O)Nc1ccc(S(=O)(=O)OC)cc1.CCOC(=O)Nc1ccc(S(=O)(=O)OC)cc1.Nc1ccc(C(=O)O)c(O)c1
inactive: SNB-19 > 100 µM | HT-29 > 100 µM | SK-MEL-28 > 100 µM | SF-295 > 100 µM | UACC-62 > 100 µM | SW-620 > 100 µM | HOP-62 > 100 µM | HOP-92 > 100 µM | OVCAR-5 > 100 µM | SK-MEL-2 > 100 µM | Malme-3M > 100 µM | IGROV-1 > 100 µM | OVCAR-4 > 100 µM | OVCAR-3 > 100 µM

O=C1OC(CC(=O)c2ccc(Cl)c(Cl)c2)C(Cl)=C1Cl (stereo not given)
inactive: SNB-19 79.3 µM | HT-29 > 100 µM | SK-MEL-28 > 100 µM | SF-295 > 100 µM | UACC-62 > 100 µM | SW-620 > 100 µM | HOP-62 > 100 µM | OVCAR-5 > 100 µM | SK-MEL-2 > 100 µM | Malme-3M > 100 µM | IGROV-1 > 100 µM | OVCAR-4 > 100 µM | OVCAR-3 > 100 µM

N=C(N)NCCCC(NCc1c2ccccc2[n+]([O-])c2ccccc12)C(=O)O (stereo not given)
inactive: SNB-19 55.6 µM | HT-29 37.3 µM | SK-MEL-28 40.8 µM | SF-295 > 100 µM | UACC-62 54.8 µM | SW-620 39.8 µM | HOP-62 > 100 µM | OVCAR-5 > 100 µM | SK-MEL-2 > 100 µM | Malme-3M > 100 µM | IGROV-1 71.9 µM | OVCAR-4 31.2 µM | OVCAR-3 > 100 µM

CN(C)CCN1CCc2c([nH]c3ccccc23)C1c1cccnc1 (stereo not given)
inactive: SNB-19 > 100 µM | HT-29 > 100 µM | SK-MEL-28 > 100 µM | SF-295 > 100 µM | UACC-62 > 100 µM | SW-620 > 100 µM | HOP-62 > 100 µM | HOP-92 63.7 µM | OVCAR-5 > 100 µM | IGROV-1 > 100 µM | OVCAR-4 > 100 µM | OVCAR-3 > 100 µM
